The text below walks through data of patent US9475841B2, “Melanoma antigen peptide and uses thereof” (INSERM (INSTITUT NATIONAL DE LA SANTE ET DE LA RECHERCHE …, priority 2012, dated 2016).

Holding throughout (assay): Cytokine profile of CD4 T cell clone stimulated with cognate peptide (intracellular staining)
What all share (assay type): cell-based, human
Settings in all cases: cognate peptide 10 μM, 5 hours

The test system of assay [1] is CD4 T cell clone 9C12-DQβ*0202. On the procedure:
(§1) Lymphocytes were stimulated for 5 hours in the presence of brefeldin A (10 μg/mL) either with peptide alone (10 μM) in an autopresentation assay or with B-EBV or HLA-class II expressing melanoma cells pulsed 2 hours with the cognate peptide, at a ratio 1:2. In some experiments, blocking mAb against HLA-DP (clone B7.21 from Dr Charron, UMR940, Paris), HLA-DQ (clone SPVL3, Beckman Coulter) or HLA-DR (clone L243, BD Biosciences) were added at a concentration of 12.5 μg/ml. Cells were then stained with APC-conjugated anti-CD4 mAb, fixed with 4% paraformaldehyde, labeled with PE-conjugated anti-cytokine mAb and analyzed by flow cytometry.
(§2) We also documented the T helper profile of each T cell clone, by stimulating the CD4 T cell clones with the cognate peptide, and analyzing cytokine production. All the clones expressed Th1 cytokines (TNFα, IFNγ, IL2 and GM-CSF). On the contrary, these clones differ in their expression of Th2 cytokines. Indeed, the two DQ2 restricted T cell clones (9C12 and 4E2) and the DR1 restricted one (5F9) also strongly express two Th2 cytokines (IL4, and IL13), whereas the DR11-restricted T cell clone only weakly expressed IL4 (Table IV). None of the CD4 T cell expresses IL10 or IL5 at a significant level.

The subject of assay [2] is CD4 T cell clone 1A5-DRβ1*1101. On the procedure:
as §1, §2

The test system of assay [3] is CD4 T cell clone 5F9-DRβ1*0101. On the procedure: as §1, §2

With “SCVGYPDEATSREQFLPSEG (SCVGYPDEATSREQFLPSEC) [MELOE-12-21]”, in assay [1], the “Cytokine profile: GM-CSF” value was “GM-CSF^high”, the “Cytokine profile: IFN” value was “IFN^high”, the “Cytokine profile: IL2” value is “IL2^high” and the “Cytokine profile: IL4” value was “IL4^high”. For the same sequence, in assay [1], the “Cytokine profile: IL5” value is recorded as “IL5^high”, the “Cytokine profile: IL10” value is “IL10^neg”, the “Cytokine profile: IL13” value is recorded as “IL13^high” and the “Cytokine profile: TNF” value was “TNF^high”.

With TSREQFLPSEGAACPPWHPS [MELOE-111-30], in assay [2], the “Cytokine profile: GM-CSF” value is recorded as “GM-CSF^high”, the “Cytokine profile: IFN” value is given as “IFN^high”, the “Cytokine profile: IL2” value is listed as “IL2^high” and the “Cytokine profile: IL4” value was “IL4^low”. In addition, in assay [2], the “Cytokine profile: IL5” value is “IL5^neg”, the “Cytokine profile: IL10” value is given as “IL10^neg”, the “Cytokine profile: IL13” value was “IL13^neg” and the “Cytokine profile: TNF” value is recorded as “TNF^high”. Besides, in assay [3], the “Cytokine profile: GM-CSF” value was “GM-CSF^high”, the “Cytokine profile: IFN” value is on record as “IFN^high”, the “Cytokine profile: IL2” value was “IL2^low” and the “Cytokine profile: IL4” value is “IL4^high”. In assay [3], the “Cytokine profile: IL5” value was “IL5^neg”, the “Cytokine profile: IL10” value was “IL10^neg”, the “Cytokine profile: IL13” value is “IL13^high” and the “Cytokine profile: TNF” value is “TNF^high”.
